Values quoted from earlier work in patent publication US20010034325A1, “Dietary modulators of gamma glutamyl transpeptidase” (priority 2000, published 2001).

Key:
GGT = details: 12-o-tetradecanoyl phorbol-13-acetate induced activity
GGTP = GGTP (Homo sapiens, UniProt P19440); details: Misra et al. 1996
Chain of GGTP (P19440 whole entry): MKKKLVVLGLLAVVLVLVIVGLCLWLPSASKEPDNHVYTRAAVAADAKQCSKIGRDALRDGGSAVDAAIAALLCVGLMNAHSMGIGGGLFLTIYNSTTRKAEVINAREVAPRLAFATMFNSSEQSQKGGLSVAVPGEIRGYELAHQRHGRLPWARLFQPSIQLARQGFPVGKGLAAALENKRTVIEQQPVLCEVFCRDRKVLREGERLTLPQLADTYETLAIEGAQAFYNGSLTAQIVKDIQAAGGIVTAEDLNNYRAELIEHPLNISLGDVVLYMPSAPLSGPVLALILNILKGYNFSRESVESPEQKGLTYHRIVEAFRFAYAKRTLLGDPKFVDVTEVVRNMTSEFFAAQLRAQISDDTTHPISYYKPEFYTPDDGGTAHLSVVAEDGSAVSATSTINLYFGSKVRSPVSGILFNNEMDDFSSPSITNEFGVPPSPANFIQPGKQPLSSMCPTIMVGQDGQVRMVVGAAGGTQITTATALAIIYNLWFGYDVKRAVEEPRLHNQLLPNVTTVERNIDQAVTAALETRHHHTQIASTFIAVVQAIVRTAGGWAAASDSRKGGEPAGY

Structure (SMILES)	inhibition of GGT levels (GGT)	effect on diabetes (GGTP)
C=CCSCC=C [diallylsulfide (DAS), diallylsulfide]	inhibited significantly	
OCc1c[nH]c2ccccc12 [indole-3-carbinol (I3C), indole-3-carbinol]	inhibited significantly	
N[C@H](C(=O)O)[C@@H]1CC(Cl)=NO1 [acivicin]		prevents overt diabetes
